Results from patent US20240116889A1, “ANTIVIRAL COMPOUNDS AND METHODS” (priority 2019, published 2024).
Like-named read-outs stand apart in the source and are kept apart here.

Assays:
[1] = tested on: USSR H1N1 virus; assay type: cell-based, influenza A virus (A/USSR/77)
[2] = tested on: USSR H1N1 virus; assay type: cell-based, influenza A virus (A/USSR/77); remark: listed apart in the source
[3] = tested on: USSR H1N1 virus; assay type: cell-based, influenza A virus (A/USSR/77); conditions: PTECs; 0.1 μM TG for 30 min
[4] = tested on: pdm H1N1 virus; assay type: cell-based, influenza A virus (A/California/07/2009); conditions: NPTr cells; 0.5 μM TG 30 min; […]
[5] = tested on: HEp2 cells; experiment: Cell viability of HEp2 cells (CellTiter-Glo); assay type: cell-based, human; conditions: HEp-2 cells
Protocol: Spun supernatants were collected to infect HEp2 cells for 24 h for immuno-detection of RSV. TG doses used to prime HEp2 cells were non-toxic. 30 min TG treated cells were rinsed, cultured overnight and subjected to cell viability assays (CellTiter-Glo® Luminescent Cell Viability Assay kit, Promega. Results are shown in FIG. 22.

[6] = tested on: DDIT3, HSPA5 and HSP90B1; assay type: cell-based, pig; conditions: NPTr cells, porcine myoblasts and NHBE cells; non-toxic TG, 30 min
[7] = tested on: RIG-I, OAS1 and PKR; assay type: cell-based, pig; conditions: NPTr cells (TG also NHBE cells and myoblasts); priming before or during infection
[8] = tested on: extracellular Ca^2+ influx; experiment: Intracellular Ca2+ monitoring assay (Fluo-8) in NPTr cells; assay type: cell-based, pig; conditions: non-toxic doses (CPA up to 5 μM; TG 10 min)
[9] = tested on: PR8 H1N1 virus (A/Puerto Rico/8/1934); assay type: in vivo, BALB/c mice
[10] = tested on: hCoV OC43; experiment: hCoV OC43 production in NHBE cells (RT-qPCR); assay type: cell-based, human coronavirus OC43; conditions: 30 min pre-infection priming, 48 and 72 hpi
Protocol: Cells were primed with TG as indicated for 30 min, washed twice with PBS and infected with hCoV OC43 at 0.01 MOI (based on FFAs) for 3 h; after which cells were again washed twice with PBS and incubated in serum-free Promocell media (supplemented with 0.1 μg/ml TPCK trypsin). Culture media were harvested at 48 and 72 hpi for viral RNA extraction followed by one-step reverse transcription qPCR to detect the relative copy number of OC43 replicase polyprotein lab RNA. Indicated significance using Tukey's multiple comparisons test and percentage viral RNA reduction relative to corresponding DMSO control.

[11] = tested on: SARS-CoV-2; experiment: SARS-CoV-2 replication in Calu-3 cells (RT-qPCR of media); assay type: cell-based
[12] = tested on: SARS-CoV-2; experiment: SARS-CoV-2 replication in NHBE cells (RT-qPCR of media); assay type: cell-based
[13] = tested on: SARS-CoV-2; experiment: SARS-CoV-2 replication in Vero E6 cells (RT-qPCR of media); assay type: cell-based
[14] = tested on: hCoV OC43; experiment: hCoV OC43 replication in A549 cells (RT-qPCR); assay type: cell-based, human coronavirus OC43
[15] = tested on: USSR H1N1 virus; experiment: USSR H1N1 replication in A549 cells (M-gene RNA, RT-qPCR); assay type: cell-based, influenza A virus (A/USSR/77)
[16] = tested on: RSV; experiment: RSV replication in A549 cells (pfu/ml by immunostaining); assay type: cell-based, human respiratory syncytial virus; conditions: 30 min TG priming, 72 h infection
Protocol: FIG. 37—Pre- and post-infection priming with TG 24 h inhibited RSV replication. […] (A) In pre-infection, cells primed with TG or control DMSO, washed with PBS, cultured in fresh media for 24 h and infected with RSV at 0.1 MOI for 2 h followed by media replacement with fresh DMEM containing 2% FCS. (B) In post-infection, cells were first infected similarly for 24 h, then primed with TG or DMSO for 30 min, washed with PBS and replaced with fresh media. In both treatment groups (A and B), cells were infected for a total period of 72 h, after which spun supernatants were used to determine progeny virus output (pfu/ml) on HEp2 cells by immunostaining with mouse anti-RSV (F27) antibody. HEp2 cells were more permissive to RSV replication than A549 cells. (C) Comparison of TG and ribavirin (Riba) in the inhibition of RSV replication. HEp-2 cells were primed with TG, Riba or control DMSO as indicated for 30 min, rinsed with PBS and infected with RSV. Riba was continuously present during infection. Four days post-infection, media were sampled for the detection of viral M-gene RNA by one-step reverse transcription-qPCR. Unless otherwise indicated, significance (based on one-way ANOVA with Tukey's multiple comparison test) is relative to DMSO control.

[17] = tested on: 2009 pandemic (pdm) H1N1 virus; experiment: 2009 pandemic (pdm) H1N1 virus replication in Calu-3 cells (M-gene RNA, RT-qPCR); assay type: cell-based, influenza A virus
[18] = tested on: USSR H1N1 virus; experiment: USSR H1N1 M-gene RNA in media of NPTr cells primed with stored or oil-mixed TG (RT-qPCR); assay type: cell-based, influenza A virus (A/USSR/77); conditions: NPTr cells primed at 0.5 μM TG
[19] = tested on: NHBE cells
[20] = tested on: NPTr cells
[21] = tested on: influenza A virus; conditions: MDCK cells; 0.001 μM TG over 48 h of infection; cited from earlier work
[22] = Tolerability of TG given to mice by oral gavage; conditions: 1 mg/kg
[23] = NPTr cells, 30 min priming, […]
[24] = 30 min priming at doses used for infection studies

## C/C=C(/C)C(=O)O[C@H]1C(C)=C2[C@H]([C@@H]1OC(=O)CCCCCCC)[C@@](C)(OC(C)=O)C[C@H](OC(=O)CCC)[C@@]1(O)[C@H]2OC(=O)[C@@]1(C)O [TG, thapsigargin]
[1]
  progeny virus output vs DMSO control: marked reduction in virus output
[1]; NPTr cells pre-primed with 0.1 μM TG for 30 min
  virus reduction: 82%
[1]; NPTr cells pre-primed with 0.5 μM TG for 30 min
  virus reduction: 93%
[1]; NPTr cells, 0.5 μM TG for 30 min
  duration of the antiviral state after TG exposure: at least 24 h
[1]; [23]
  IC50: 0.00712 µM
  Selectivity index (CC50/IC50): 7952.21
[2]
  progeny virus output vs DMSO control: marked reduction in virus output
[2]; myoblasts, 0.5 μM TG 30 min, […]
  virus production, TG before vs 6 h after infection: comparable reduction in virus production
[2]; myoblasts, 1.0 μM TG for 1 h
  duration of the antiviral state after TG exposure: at least 24 h
[3]
  duration of the antiviral state after TG exposure: at least 24 h
[4]
  virus production, TG before vs 6 h after infection: comparable reduction in virus production
[5]
  CC50: 90 µM
[6]
  expression of ER stress associated genes: consistently elevated ER stress associated genes
[7]
  expression of type I IFN associated genes in response to infection: consistently increased the expression of type I IFN associated genes
[8]
  extracellular Ca^2+ influx: modest Ca^2+ influx
[9]; TG 30 ng by gavage daily
  body weight of surviving treated mice: progressive weight gain from 9 dpi
[9]; TG 30 ng by gavage daily, […]
  PR8 virus loads in lungs vs control mice: significantly lower
  gross lung pathology: more localised to the vicinity of virus entry site
[9]; mouse, in vivo
  survival of infected mice: 40%
[10]
  hCoV OC43 production: reduced hCoV OC43 production in a dose-dependent manner
[11]
  SARS-CoV-2, separate infection and co-infection with pdm 2009 H1N1: blocked
  SARS-CoV-2 replication, post-infection priming: just as effective in virus inhibition as pre-infection TG priming
[11]; Calu-3 cells, […], HC primed and continuously present
  SARS-CoV-2 replication: highly inhibitory
[12]
  SARS-CoV-2 replication: highly inhibitory
[13]
  SARS-CoV-2 replication: lack of effectiveness
[14]
  hCoV OC43, separate infection and co-infection with USSR H1N1: blocked
[14]; A549 cells, TG 30 min priming vs continuous RDV, […]
  blocking of hCoV OC43 replication, comparison with RDV: superior to remdesivir (RDV)
[15]
  USSR H1N1, separate infection and co-infection with hCoV OC43: blocked
[15]; A549 cells, TG 30 min priming vs continuous RDV
  blocking of USSR H1N1 replication, comparison with RDV: superior to remdesivir (RDV)
[16]
  RSV replication, priming 24 h before or 24 h post-infection: strongly inhibited RSV replication
[17]
  pdm 2009 H1N1, separate infection and co-infection with SARS-CoV-2: blocked
[18]; 1:1 volume ratio, 24 h at room temperature
  antiviral function after mixing TG-DMSO stock with olive oil or sesame oil: did not diminish TG antiviral function
[18]; 24 h at RT, relative to freshly thawed TG
  antiviral activity after incubation of TG stock solution on its own: some reduction in antiviral activity
[19]; [24]
  cell viability after priming: no cytotoxic effect on cell viability
[19]; continuous 5 nM TG for 24 h
  cell viability on continuous exposure: no reduction in cell viability
[19]; read-out: cellular cytotoxicity CC50, 30 min priming, viability after 24 h
  CC50: 33.5 µM
[20]; [24]
  cell viability after priming: no cytotoxic effect on cell viability
[20]; 30 min priming, viability after 24 h
  CC50: 56.6 µM
[20]; primed once with 0.5 μM TG for 30 min, over 20 h
  cell viability of primed cells, infected or uninfected: more viable than DMSO control cells
[21]
  progeny influenza virus output: increase progeny influenza virus output
[22]
  clinical adverse effects: no detectable clinical adverse effects
